Test results from patent publication US20160318928A1, “TRICYCLIC COMPOUNDS AS ANTICANCER AGENTS” (BRISTOL-MYERS SQUIBB COMPANY, priority 2013, published 2016).

Assays:
BRD4 = BRD4 (Homo sapiens, UniProt O60885); assay: Time resolved fluorescence resonance energy transfer (TR-FRET) binding assay, BRD4 bromodomain; details: one of the FRET assays described
[1] = test system: JJN3R multiple myeloma cell line; assay: Human tumor xenograft model in mice, JJN3R; format: in vivo; details: Mus musculus, JJN-3R, po, QDx7, read-out: % TGI
Text: Human Tumor Xenograft Models in Mice
All rodents were obtained from Jackson Laboratory. (Bar Harbor, Me.), and maintained in an ammonia-free environment in a defined and pathogen-free colony. All mice were quarantined approximately 1 week prior to their use for tumor propagation and drug efficacy testing. Mice were fed food and water ad libitum. The animal care program of Bristol-Myers Squibb Pharmaceutical Research Institute is fully accredited by the American Association for Accreditation of Laboratory Animal Care (AAALAC). All experiments were performed in accordance with Bristol-Myers Squibb (BMS) animal test methods and guidelines.
Tumor xenografts were grown and maintained subcutaneously (SC) in NSG (NOD scid IL2 receptor gamma chain knockout) mice (Jackson Lab). Tumors were propagated as subcutaneous transplants using tumor fragments obtained from donor mice.
Preclinical Chemotherapy Trials
The required numbers of animals needed to detect a meaningful response were pooled at the start of the experiment and each was given bilateral subcutaneous implants of two tumor fragments (˜20 mg) with a 13-gauge trocar. Tumors were allowed to grow to the pre-determined size window (tumors outside the range were excluded) and animals were evenly distributed to various treatment and control groups. There were typically 6-8 mice per treatment and control groups, consisting of 10-12 tumors. Treatment of each animal was based on individual body weight. Treated animals were checked daily for treatment related toxicity/mortality. Each group of animals was weighed before the initiation of treatment (WO and then again following the last treatment dose (Wt2). The difference in body weight (Wt2-Wt1) provides a measure of treatment-related toxicity.
Tumor response was determined by measurement of tumors with a caliper twice a week, until the tumors reached a predetermined “target” size of 0.5 gm or 1 gm depending on the tumor type. Tumor weights (mg) were estimated from the formula:
Tumor weight=(length×width^2)÷2
Tumor response criteria are expressed in terms of tumor growth inhibition (% TGI). Tumor growth delay is defined as the difference in time (days) required for the treated tumors (T) to reach a predetermined target size compared to those of the control group (C). For this purpose, the tumor weight of a group is expressed as medium tumor weight (MTW).
Tumor growth inhibition is calculated as follows:
where, Ct=Median control tumor size at end of treatment C0=Median control tumor size at treatment initiation Tt=Median tumor size of treated group at end of treatment T0=Median tumor size of treated group at treatment initiation
Tumor response was also expressed in terms of tumor growth delay and expressed as log cell kill (LCK value), defined as the difference in time (days) required for the treated tumors (T) to reach a predetermined target size compared to those of the control group (C).
Whenever possible, antitumor activity was determined at a range of dose levels up to the maximum tolerated dose (MTD) which is defined as the dose level immediately […] which excessive toxicity (i.e. more than one death) occurred. When death occurred, the day of death was recorded. Treated mice dying prior to having their tumors reach target size were considered to have died from drug toxicity. No control mice died bearing tumors less than target size. Treatment groups with more than one death caused by drug toxicity were considered to have had excessively toxic treatments and their data were not included in the evaluation of a compound's antitumor efficacy.
For administration of BET inhibitors to rodents, compounds were dissolved in […]/10% TPGS/10% Ethanol. BET inhibitors were typically administered orally on a schedule of QDx7 or QDx10 (5 day-on-2 day-off), although other schedules had also been evaluated and shown to be efficacious

| SMILES | IC50 (BRD4) [nM] | inhibition in vivo at 1 mg/kg [1] [%] | inhibition in vivo at 4 mg/kg [1] [%] |
| --- | --- | --- | --- |
| Cc1nnn(C)c1-c1cnc2c3ccc(S(C)(=N)=O)cc3n([C@H](c3ccccc3)C3CCOCC3)c2c1 (single isomer, unassigned) [Example 371] | < 5 | – | – |
| Cc1nnn(C)c1-c1cnc2c3ccc(S(C)(=N)=O)cc3n([C@H](c3ccccc3)C3CCOCC3)c2c1 (single isomer, unassigned) [Example 372] | < 5 | – | – |
| COCC(C1CCOCC1)n1c2cc(C(C)(C)O)ccc2c2ncc(-c3c(C)nnn3C)cc21 (single isomer, unassigned) [Example 396] | < 5 | – | – |
| COCC(C1CCOCC1)n1c2cc(C(C)(C)O)ccc2c2ncc(-c3c(C)nnn3C)cc21 (single isomer, unassigned) [Example 397] | < 25 | – | – |
| Cc1nnn(C)c1-c1cnc2c3ccc([C@](C)(O)C4CC4)c(F)c3n([C@H](c3ccccc3)C3CCOCC3)c2c1 (single isomer, unassigned) [Example 432] | – | 51 | 102 |
| Cc1nnn(C)c1-c1cnc2c3ccc(C(C)(O)C4CC4)c(F)c3n([C@H](c3ccccc3F)C3CCOCC3)c2c1 (single isomer, unassigned) [Example 436] | – | 71 | 116 |
| [2H]C([2H])([2H])c1nnn(C)c1-c1cnc2c3cc(F)c(C(C)(C)O)cc3n(C(c3ncccc3F)C3CCOCC3)c2c1 (single isomer, unassigned) [Example 459] | < 5 | – | – |
| Cc1noc(C)c1-c1cnc2c3ccc(C(C)(C)O)cc3n(C(c3ccccc3)c3ccccc3)c2c1 [Example 3] | < 5 | – | – |
| CCCC(CCC)n1c2cc(C(C)(C)O)ccc2c2ncc(-c3c(C)noc3C)cc21 [Example 8] | < 5 | – | – |
| Cc1nnn(C)c1-c1cnc2c3ccc(C(C)(C)O)cc3n(C(CCC(F)(F)F)CCC(F)(F)F)c2c1 [Example 56] | < 5 | – | – |
| Cc1nnn(C)c1-c1cnc2c3ccc(C(C)(C)O)cc3n([C@H](c3ccc(F)cc3)C3CCOCC3)c2c1 [Example 59] | < 5 | – | – |
| Cc1nnn(C)c1-c1cnc2c3ccc(C(C)(C)O)cc3n([C@@H](c3ccc(F)cc3)C3CCOCC3)c2c1 [Example 60] | < 5 | – | – |
| CCCC(CCC)n1c2cc(C(C)(C)O)ccc2c2ncc(-c3c(C)nnn3C)cc21 [Example 61] | < 5 | – | – |
| Cc1nnn(C)c1-c1cnc2c3ccc(C(C)(C)O)cc3n([C@@H](c3ccc(F)cc3)C3CCOCC3)c2c1 [Example 73] | < 5 | – | – |
| Cc1nnn(C)c1-c1cnc2c3ccc(C(C)(C)O)c(F)c3n(C(CCC(F)(F)F)CCC(F)(F)F)c2c1 [Example 74] | < 25 | – | – |
| CCCC(CCC)n1c2cc(-c3c(C)nnn3C)cnc2c2ccc(C(C)(C)O)c(F)c21 [Example 75] | < 5 | – | – |
| CCCC(CCC)n1c2cc(-c3c(C)noc3C)cnc2c2ccc(C(C)(C)O)c(F)c21 [Example 82] | < 25 | – | – |
| Cc1noc(C)c1-c1cnc2c3ccc(C(C)(C)O)c(F)c3n(C(CCC(F)(F)F)CCC(F)(F)F)c2c1 [Example 83] | < 25 | – | – |

| SMILES | IC50 (BRD4) [nM] | inhibition in vivo at 1 mg/kg [1] [%] | inhibition in vivo at 4 mg/kg [1] [%] |
| --- | --- | --- | --- |
| CCS(=O)(=O)Nc1ccc(S(C)(=O)=O)c2c1c1ncc(-c3c(C)nnn3C)cc1n2[C@H](c1ccccc1)C1CCOCC1 [Example 217] | < 5 | – | – |
| Cc1nnn(C)c1-c1cnc2c3c(NS(=O)(=O)C4CC4)ccc(S(C)(=O)=O)c3n(C(c3ccccc3)C3CCOCC3)c2c1 (centres unmarked) [Example 218] | < 5 | – | – |
| Cc1nnn(C)c1-c1cnc2c3c(NS(=O)(=O)CC4CC4)ccc(S(C)(=O)=O)c3n([C@H](c3ccccc3)C3CCOCC3)c2c1 [Example 219] | < 5 | – | – |
| [2H]C([2H])([2H])c1nnn(C)c1-c1cnc2c3c(NS(=O)(=O)CC)ccc(S(C)(=O)=O)c3n(C(c3ccccc3)C3CCOCC3)c2c1 (centres unmarked) [Example 223] | < 25 | – | – |
| [2H]C([2H])([2H])c1nnn(C)c1-c1cnc2c3ccc(S(C)(=O)=O)cc3n([C@H](c3ccccc3)C3CCOCC3)c2c1 [Example 263, 5-{7-Methanesulfonyl-5-[(S)-oxan-4-yl(phenyl)methyl]-5H-pyrido[3,2-b]indol-3-yl}-4-(^2H3)methyl-1-methyl-1H-1,2,3-triazole] | – | 6 | 52 |
| [2H]C([2H])([2H])c1nnn(C)c1-c1cnc2c3ccc(S(C)(=O)=O)cc3n(C(c3ccc(F)cc3)C3CCOCC3)c2c1 (centres unmarked) [Example 265] | < 5 | – | – |
| [2H]C([2H])([2H])c1nnn(C)c1-c1cnc2c3ccc(C(C)(C)O)cc3n(C(c3ccccc3F)C3CCOCC3)c2c1 (centres unmarked) [Example 266] | < 5 | – | – |
| [2H]C([2H])([2H])c1nnn(C)c1-c1cnc2c3c(S(C)(=O)=O)cccc3n(C(c3ccc(F)cc3)C3CCOCC3)c2c1 (centres unmarked) [Example 270] | < 5 | – | – |
| [2H]C([2H])([2H])c1nnn(C)c1-c1cnc2c3ccc(C(C)(C)O)c(F)c3n([C@H](c3ccccc3F)C3CCCOC3)c2c1 (some centres unmarked) [Example 272] | < 5 | – | – |
| [2H]C([2H])([2H])c1nnn(C)c1-c1cnc2c3c(OC)cc(C(C)(C)O)cc3n(C(c3ccc(F)cc3)C3CCOCC3)c2c1 (centres unmarked) [Example 275] | < 5 | – | – |
| [2H]C([2H])([2H])c1nnn(C)c1-c1cnc2c3cc(F)c(C(C)(C)O)cc3n([C@H](c3ccccc3F)C3CCOCC3)c2c1 [Example 276, 2-{8-Fluoro-5-[(S)-(2-fluorophenyl)(oxan-4-yl)methyl]-3-[4-(^2H3)methyl-1-methyl-1H-1,2,3-triazol-5-yl]-5H-pyrido[3,2-b]indol-7-yl}propan-2-ol] | – | 56 | 95 |
| [2H]C([2H])([2H])c1nnn(C)c1-c1cnc2c3ccc(C(C)(C)O)c(F)c3n([C@H](c3ccccc3)C3CCOCC3)c2c1 [Example 278, 2-{6-Fluoro-3-[4-(^2H3)methyl-1-methyl-1H-1,2,3-triazol-5-yl]-5-[(S)-oxan-4-yl(phenyl)methyl]-5H-pyrido[3,2-b]indol-7-yl}propan-2-ol] | – | 103 | 110 |
| COc1cccnc1C(C1CCOCC1)n1c2cc(C(C)(C)O)ccc2c2ncc(-c3c(C)nnn3C)cc21 (centres unmarked) [Example 291] | < 5 | – | – |
| Cc1nnn(C)c1-c1cnc2c3ccc(CN(C)C)cc3n([C@H](c3ccccc3)C3CCOCC3)c2c1 [Example 406, {[3-(Dimethyl-1H-1,2,3-triazol-5-yl)-5-[(S)-oxan-4-yl(phenyl)methyl]-5H-pyrido[3,2-b]indol-7-yl]methyl}dimethylamine] | < 5 | – | – |
| Cc1nnn(C)c1-c1cnc2c3cc(C(=O)N4CC(F)(F)C4)ccc3n([C@H](c3ccccc3)C3CCOCC3)c2c1 [Example 428, 5-[8-(3,3-Difluoroazetidine-1-carbonyl)-5-[(S)-oxan-4-yl(phenyl)methyl]-5H-pyrido[3,2-b]indol-3-yl]-1,4-dimethyl-1H-1,2,3-triazole] | < 5 | – | – |
| Cc1nnn(C)c1-c1cnc2c3cc(C(=O)N4CC(O)C4)ccc3n([C@H](c3ccccc3)C3CCOCC3)c2c1 [Example 429, 1-[3-(Dimethyl-1H-1,2,3-triazol-5-yl)-5-[(S)-oxan-4-yl(phenyl)methyl]-5H-pyrido[3,2-b]indole-8-cabonyl]azetidine-3-ol] | < 5 | – | – |
| Cc1nnn(C)c1-c1cnc2c3cc(C(=O)N4CC(F)C4)ccc3n([C@H](c3ccccc3)C3CCOCC3)c2c1 [Example 430, 5-[8-(3-Fluoroazetidine-1-carbonyl)-5-[(S)-oxan-4-yl(phenyl)methyl]-5H-pyrido[3,2-b]indol-3-yl]-1,4-dimethyl-1H-1,2,3-triazole] | < 5 | – | – |
| Cc1nnn(C)c1-c1cnc2c3cc(F)c(C(C)(C)O)c(F)c3n([C@H](c3ccccc3)C3CCOCC3)c2c1 [Example 451, 2-[3-(Dimethyl-1H-1,2,3-triazol-5-yl)-6,8-difluoro-5-[(S)-oxan-4-yl(phenyl)methyl]-5H-pyrido[3,2-b]indol-7-yl]propan-2-ol] | < 5 | – | – |
